According to patent publication US20210315970A1, “Hepatitis A Virus Replication Inhibitor Targeting mTOR” (Tokyo Metropolitan Institute of Medical Science, priority 2020, published 2021):

Experiments:
[1] = test system: subgenomic HAV RNA; test: Subgenomic HAV RNA replicon replication in transfected Huh-7.5 cells; assay type: cell-based, hepatitis A virus
Procedure: FIG. 4i Inhibition of subgenomic HAV/NLuc RNA replication in the transfected Huh-7.5 cells by three different mTOR inhibitors and DAA (30 μM 2′CMA). **P<0.01 vs. DMSO control group (one-way analysis of variance with Dunnett's multiple comparison test).
In vitro transcription of HAV or HCV RNA was performed with T7 RiboMAX Express Large Scale RNA production system (Promega) according to the manufacturer's protocol. Transfection of viral RNA was carried out in Gene Pulser Xcell Total System (Bio-Rad Laboratories) as previously described^33, or with TransIT-mRNAtransfection kit (Mirus) for HAV-Luc RNA as previously described^32.
(§1) GLuc analysis of HCV replication and dual luciferase assay for analyzing the transcriptional induction were carried out according to the previously described methods^31,32. NanoLuc activity was determined with Nano-Glo Luciferase Assay System (Promega) according to the manufacture's protocol. For virus replication assays, the medium was replaced with a drug-containing medium at 1 hour post inoculation.

[2] = test system: HAV expressing NanoLuc reporter (18f strain, HAV/NLuc); test: HAV/NLuc reporter virus replication in HuH-7 cells (NanoLuc activity); assay type: cell-based, hepatitis A virus; conditions: for viral replication level reduced to (NanoLuc activity): HuH-7 cells infected with HAV/NLuc, drug given 1 hour after infection, 48 hours post-infection; for virus replication compared to rapalogs that target mTOR alone: HAV, dual mTOR/PI3K inhibitors; for virus replication level reduced to (NanoLuc activity): highest dose (10 μM)
Procedure: (§2) HuH-7 cells were infected with HAV/NLuc and drugs were given 1 hour after infection. 48 hours later, NanoLuc activities were measured to evaluate the virus replication levels. In addition, WST-8 reagent (Cell Counting Kit-8, Dojindo) was used to evaluate cell viability after the drug treatment.
pHM175/18f-NLuc plasmid was prepared by PCR amplification of the NLuc open reading frame using pNL1.1 plasmid (Promega) as a template and primers containing a triglycine sequence flanked by XbaI and BamHI restriction enzyme sites. This PCR product was digested with these enzymes and ligated into similarly digested pSK-2A-Zeo-2B plasmid^36 to give pSK-2A-NLuc-2B plasmid. This plasmid was further digested with SacI/PflMI to cleave out the entire 2A-NLuc-2B fragment, which was ligated into similarly digested HM175/18f parental plasmid^37 to give pHM175/18f-NLuc reporter virus.
as §1

[3] = test system: HuH-7 cells; test: Cell viability after drug treatment (WST-8, Cell Counting Kit-8); assay type: cell-based, human; conditions: at concentrations that suppress virus replication
Procedure: as §2
MicroRNA-122 mimics were synthesized by Dharmacon and transfected as miRNA/miRNA* duplex by electroporation as previously described^33. Puromycin, Blasticidin and Ruxolitinib were purchased from InvivoGen. Pyridone 6 was obtained from EMD Millipore. Recombinant human IFN-λ1 and IFN-α and actinomycin D were purchased from Sigma-Aldrich. Recombinant human IFN-γ was obtained from PeproTech. PSI-7977 (sofosbuvir) was obtained from ChemScene and 2′-C-methyl adenosine (2′ CMA) was obtained from Santa Cruz Biotechnology. Cell viabilities were determined using Cell Counting Kit-8 (Dojindo) on 96-well plates according to the manufacturer's protocol.

[4] = test system: HAV; test: HAV-infected mouse model, viral RNA shed in feces (real-time PCR); assay type: in vivo; conditions: Ifnar1-/- C57BL/6 mice, 15 mg/kg orally from Day 5 after infection, daily for 14 days except Day 9 and Day 16
Procedure: Type-I interferon receptor (Ifnar1)-knockout C57BL/6 mice were infected by tail vein injection of the virus equivalent to 1.7×10^9 genome copy number. Pictilisib (15 mg/kg) was administered 5 days after infection and viral RNA contained in the later shed feces was quantified by real-time PCR to analyze the antiviral action of the drug (Reference 3).
The drug was orally administered from Day 5 following the infection and continuously administered daily for 14-consecutive days except Day 9 and Day 16. The viral RNA levels shed in the feces reflect the viral load in the liver and thus the viral RNA levels in the feces were quantified. As a result, the viral RNA level was reduced to about one-tenth by administration of the drug, confirming its antiviral effect (FIG. 6).
Virus: HAV-HM175 strain, 1.7×10^9 GE, iv route
Vehicle: 0.5% methyl cellulose/0.2% Tween 80
Mice: Ifnar1^−/− C57BL/6, 5 animals/group
The drug was orally administered from Day 5 following the infection for 14 consecutive days except Day 9 and Day 16. Viral level in the feces was quantified with time because it can serve as an indicator that reflects the viral level in the liver.

[5] = phase II trial; cited from earlier work
[6] = test system: HAV; test: HAV replication in Huh-7.5 cells; assay type: cell-based, hepatitis A virus; conditions: IRF1-dependent
Procedure: (§3) High-titer HAV (HM175/18f strain) was mycoplasma-free and was prepared as previously described^34. HAV infection was performed at a multiplicity of infection (MOI) of 10. SeV (Cantell strain) was obtained from Charles River Laboratories, and was inoculated at 50 U ml^−1 unless otherwise indicated. Infection with HCV-carrying Gaussia luciferase (GLuc) reporter was performed as previously described^32. DENV serotype 2 (olSa-054 strain) and ZIKV (MR-766 and AB-59 strains) were propagated in Vero, C6/36 or Huh-7.5 cells and inoculated at MOI=1 as previously described^35.
Total RNA extraction was performed using RNeasy Mini Kit (QIAGEN), QIAamp viral RNA Mini Kit (QIAGEN) or TRIzol (Thermo Fisher). HAV genomic RNA was detected by a two-step RT-qPCR analysis using SuperScript III First-Strand Synthesis System (Thermo Fisher Scientific) and iTaq Universal SYBR Green Supermix (Bio-Rad Laboratories), or Thunderbird SYBR qPCR Mix (TOYOBO). 5′-GGTAGGCTACGGGTGAAAC-3′ (SEQ ID NO:3) and 5′-[…]-3′ (SEQ ID NO:4) were used as HAV-specific primers

[7] = test system: HCV; test: HCV replication in Huh-7.5 cells; assay type: cell-based, hepatitis C virus; conditions: RARRES3 overexpression
Procedure: as §3, §1

[8] = test system: DENV; test: DENV replication in Huh-7.5 cells; assay type: cell-based, dengue virus; conditions: RARRES3 overexpression
Procedure: as §3
Plasmids encoding capsid and subgenomic RNA containing NS1-5 regions fused with a NanoLuc reporter flanked by 5′ and 3′ untranslated RNAs derived from DENV1 (D1/Hu/Saitama/NIID100/2014 strain) and DENV2-derived premembrane and envelope protein (olSa-054 strain) were transfected into HEK293T cells. Infectious virons secreted in the supernatant were harvested according to the previously described method^38.
Primer pair targeting DENV genomic RNA, 5′-[…]-3′ (SEQ ID NO:57) and 5′-CATCATTAAGTCGAGGGCC-3′ (SEQ ID NO:58), or primer pair targeting ZIKV genomic RNA, 5′-[…]-3′ (SEQ ID NO:59) and 5′[…]-3′ (SEQ ID NO:60) was used with RNA-direct SYBR Green Realtime PCR Master Mix (TOYOBO) to quantify DENV and ZIKV RNA abundance.

[9] = test system: human rhinovirus 14 (HRV-14); test: HRV-14 replication with RARRES3 overexpression; assay type: cell-based
[10] = test system: HAV; test: HAV replication in cells overexpressing RARRES3 or C113S mutant (lentiviral vectors); assay type: cell-based, hepatitis A virus; conditions: cells overexpressing the protein

## C[C@@]1(O)[C@H](O)[C@@H](CO)O[C@H]1n1cnc2c(N)ncnc21 [2′CMA, 2′-C-methyl adenosine]
[1]; transfected Huh-7.5 cells, 2′CMA 30 μM
  subgenomic HAV/NLuc RNA replication: Inhibition

## CO[C@H]1C[C@@H]2CC[C@@H](C)[C@@](O)(O2)C(=O)C(=O)N2CCCC[C@H]2C(=O)O[C@H]([C@H](C)C[C@@H]2CC[C@@H](OCCO)[C@H](OC)C2)CC(=O)[C@H](C)/C=C(\C)[C@@H](O)[C@@H](OC)C(=O)[C@H](C)C[C@H](C)/C=C/C=C/C=C/1C [everolimus]
[2]
  viral replication level reduced to (NanoLuc activity): one-twentieth
[3]
  cell viability: without having an influence on the cell viability

## CO[C@H]1C[C@@H]2CC[C@@H](C)[C@@](O)(O2)C(=O)C(=O)N2CCCC[C@H]2C(=O)O[C@H]([C@H](C)C[C@@H]2CC[C@@H](OC(=O)C(C)(CO)CO)[C@H](OC)C2)CC(=O)[C@H](C)/C=C(\C)[C@@H](O)[C@@H](OC)C(=O)[C@H](C)C[C@H](C)/C=C/C=C/C=C/1C [temsirolimus]
[2]
  viral replication level reduced to (NanoLuc activity): one-twentieth
[3]
  cell viability: without having an influence on the cell viability

## Oc1cccc(-c2nc(N3CCOCC3)c3oc4ncccc4c3n2)c1 [PI-103]
[2]
  virus replication compared to rapalogs that target mTOR alone: one-tenth
[2]; HAV/NLuc-infected cells
  virus replication level reduced to (NanoLuc activity): about one-thousandth

## CCC(=O)N1CCN(c2ccc(-n3c(=O)ccc4cnc5ccc(-c6cnc7ccccc7c6)cc5c43)cc2C(F)(F)F)CC1 [Torin-1, 1-[4-[4-(1-oxopropyl)-1-piperazinyl]-3-(trifluoromethyl)phenyl]-9-(3-quinolinyl)-benzo[h]-1,6-naphthyridin-2(1H)-one]
[2]; HAV/NLuc-infected cells
  HAV replication (effect in words): suppressed strongly
[2]
  viral replication level reduced to (NanoLuc activity): one-hundredth
[3]
  cell viability: without having an influence on the cell viability

## CO[C@H]1C[C@@H]2CC[C@@H](C)[C@@](O)(O2)C(=O)C(=O)N2CCCC[C@H]2C(=O)O[C@H]([C@H](C)C[C@@H]2CC[C@@H](O)[C@H](OC)C2)CC(=O)[C@H](C)/C=C(\C)[C@@H](O)[C@@H](OC)C(=O)[C@H](C)C[C@H](C)/C=C/C=C/C=C/1C [rapamycin]
[3]
  cell viability: without having an influence on the cell viability

## CS(=O)(=O)N1CCN(Cc2cc3nc(-c4cccc5[nH]ncc45)nc(N4CCOCC4)c3s2)CC1 [Pictilisib]
[2]
  virus replication compared to rapalogs that target mTOR alone: one-tenth
[2]; HAV/NLuc-infected cells
  virus replication level reduced to (NanoLuc activity): about one-thousandth
[4]
  viral RNA level in the feces reduced to: about one-tenth
[5]
  safety to human: confirmed to be safe to human

B1: IFN-γ: Recombinant human IFN-γ obtained from PeproTech (protein, UniProt P01579 24-161, looked up)
Interferon gamma: QDPYVKEAENLKKYFNAGHSDVADNGTLFLGILKNWKEESDRKIMQSQIVSFYFKLFKNFKDDQSIQKSVETIKEDMNVKFFNSNKKKRDDFEKLTNYSVTDLNVQRKAIHELIQVMAELSPAAKTGKRKRSQMLFRG
[6]
  HAV replication: restricted HAV replication

B2: RARRES3: retinoic acid receptor responder protein 3, SEQ ID NO:2, phospholipase A / acyltransferase activity (protein, listed as Homo sapiens)
chain: MASPHQEPKPGDLIEIFRLGYEHWALYIGDGYVIHLAPPSEYPGAGSSSVFSVLSNSAEVKRERLEDVVGGCCYRVNNSLDHEYQPRPVEVIISSAKEMVGQKMKYSIVSRNCEHFVTQLRYGKSRCKQVEKAKVEVGVATALGILVVAGCSFAIRRYQKKATA
[1]; Huh-7.5 cells expressing RARRES3
  replication of subgenomic RNA replicon: suppressed
[7]
  HCV replication: did not restrict
[8]
  DENV replication: did not restrict
[9]
  HRV-14 replication: did not restrict
[10]
  HAV replication: strongly suppressed
